Target: human recombinant PDE4B1 enzyme (Homo sapiens (Human), UniProt Q07343)
Experiment: Inhibition of PDE4B1 activity by cAMP HTRF assay
Type: biochemical
Settings: human recombinant PDE4B1, cAMP 40 nM, pH 7.4
Experimental: Determination of the inhibition of the compounds on PDE4B1 activity by using cAMP HTRF® assay
The inhibitory effect of the compounds on human PDE4B1 enzyme activity was determined by quantifying the 5′-adenosine monophosphate (5′-AMP) formed from 3′,5′-cyclic adenosine monophosphate (cAMP).
The test compound or water (control) and human recombinant PDE4B1 enzyme (4.8 U) were mixed in a buffer solution (pH 7.4) consisting of 1× Hanks' balanced salt solution (HBSS), 5 mM HEPES, 3 mM MgCl2, and 0.1% BSA and incubated for 10 min. A cAMP enzyme substrate (final concentration 40 nM) was added, and the mixture was incubated at room temperature for 60 min. Then a fluorescent acceptor (Dye2 labeled with cAMP), a fluorescent donor (anti-cAMP antibody labeled with europium cryptate) and a non-specific phosphodiesterase inhibitor IBMX (3-isobutyl-1-methyl xanthine; final concentration 1 mM) were added. After 60 min, the fluorescence transfer related to the amount of remaining cAMP was measured on a microplate reader (Rubystar, BMG) at λex=337 nm, λem=620 nm and λem=665 nm. The enzyme activity is calculated from the ratio of the signals measured at 665 nm and 620 nm. The results are expressed as percent inhibition of the enzyme activity of the control (without PDE4 inhibitor). The enzyme was omitted for measurement of the basic control. The IC50 value (IC50=the concentration that caused the half-maximum inhibition of the specific activity of the control) is derived from dose-response measurements with eight different concentrations (n=2; repeated 2 times)

human recombinant PDE4B1 enzyme, sequence (Q07343 whole entry): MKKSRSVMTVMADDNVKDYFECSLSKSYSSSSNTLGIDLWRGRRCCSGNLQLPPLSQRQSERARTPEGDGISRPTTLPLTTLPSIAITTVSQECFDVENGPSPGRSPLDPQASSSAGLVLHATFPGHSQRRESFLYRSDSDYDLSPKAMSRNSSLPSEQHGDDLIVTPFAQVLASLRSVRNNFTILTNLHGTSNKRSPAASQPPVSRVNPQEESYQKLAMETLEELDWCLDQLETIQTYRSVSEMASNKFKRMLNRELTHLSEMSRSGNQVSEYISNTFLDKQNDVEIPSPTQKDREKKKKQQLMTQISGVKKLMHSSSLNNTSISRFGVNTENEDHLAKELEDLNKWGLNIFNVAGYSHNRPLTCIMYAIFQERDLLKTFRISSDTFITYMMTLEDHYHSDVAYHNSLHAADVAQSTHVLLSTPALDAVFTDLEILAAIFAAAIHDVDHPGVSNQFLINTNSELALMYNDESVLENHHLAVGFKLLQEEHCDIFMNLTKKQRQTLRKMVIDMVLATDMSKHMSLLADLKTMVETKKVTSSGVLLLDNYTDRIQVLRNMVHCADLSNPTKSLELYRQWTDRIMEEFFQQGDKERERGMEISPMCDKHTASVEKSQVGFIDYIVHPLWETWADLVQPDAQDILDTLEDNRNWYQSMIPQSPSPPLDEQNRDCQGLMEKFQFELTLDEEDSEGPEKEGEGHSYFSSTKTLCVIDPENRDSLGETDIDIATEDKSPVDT

Row | Compound | IC50 [nM]
1 | COc1ccc(/C(=C\n2c(C)cc(=O)cc2C)c2ccccc2)cc1OCC1CC1 [Example 104-2, (Z)-1-(2-(3-cyclopropylmethoxy-4-methoxyphenyl)-2-phenylethenyl)-2,6-dimethylpyridin-4(1H)-one] | 8400
2 | Cc1cc(=O)cc(C)n1/C=C/c1ccc(OC(F)F)c(OC2CCSC2)c1 (stereo not drawn) [Example 96, (E)-1-((3-(tetrahydrothiophen-3-yl)oxy-4-difluoromethoxy)-styryl)-2,6-dimethylpyridin-4(1H)-one] | 2.4
3 | COc1ccc(/C(=C/n2c(C)cc(=O)cc2C)C(=O)N(C)C)cc1OCC1CC1 [Example 109, (Z)-2-(3-cyclopropylmethoxy-4-methoxyphenyl)-3-(2,6-dimethyl-4-carbonylpyridin-1(4H)-yl)-N,N-dimethylacrylamide] | 180
4 | C/C=C/C(=O)OC(Cn1c(C)cc(=O)cc1C)c1ccc(OC)c(OCC2CC2)c1 (stereo not drawn) [Example 6, (1-(3-cyclopropylmethoxy-4methoxyphenyl)-2-(2,6-dimethyl-4-carbonylpyridin-1(4H)-yl)ethyl) crotonate] | 19
5 | COc1ccc(/C(=C/n2c(C)cc(=O)cc2C)c2ccccc2)cc1OCC1CC1 [Example 104-1, (E)-1-(2-(3-cyclopropylmethoxy-4-methoxyphenyl)-2-phenylethenyl)-2,6-dimethylpyridin-4(1H)-one] | 1700
6 | CCCCCCOc1cc(C(=O)Cn2c(C)cc(=O)cc2C)ccc1OC [Example 18, 1-(2-(3-n-hexyloxy-4-methoxyphenyl)-2-oxoethyl)-2,6-dimethylpyridin-4(1H)-one] | 4.5
7 | COc1ccc(/C=C/n2c(C)cc(=O)cc2C)cc1OCCS(C)(=O)=O [Example 79, (E)-1-(3-methylsulfoneethoxy-4-methoxystyryl)-2,6-dimethylpyridin-4(1H)-one] | 160
8 | CC#CCOc1cc(C(=O)Cn2c(C)cc(=O)cc2C)ccc1OC [Example 29, 1-(2-(3-(but-2-yn-1-yloxy)-4-methoxyphenyl)-2-oxoethyl)-2,6-dimethylpyridin-4(1H)-one] | 93
9 | Cc1cc(=O)cc(C)n1CC(=O)c1ccc(OC(F)F)c(OCC2CC2)c1 [Example 49, 1-(2-(3-cyclopropylmethoxy-4-difluoromethoxyphenyl)-2-oxoethyl)-2,6-dimethylpyridin-4(1H)-one] | 2.9
10 | COc1ccc(C(=O)Cn2c(C)cc(=O)cc2C)cc1OC1CC1 [Example 19, 1-(2-(3-cyclopropyloxy-4-methoxyphenyl)-2-oxoethyl)-2,6-dimethylpyridin-4(1H)-one] | 4.6
11 | COc1ccc(C(=O)Cn2c(C)cc(=O)cc2C)cc1OCCSC [Example 35, 1-(2-(3-methylthioethoxy-4-methoxyphenyl)-2-oxoethyl)-2,6-dimethylpyridin-4(1H)-one] | 32
12 | Cc1cc(=O)cc(C)n1/C=C/c1ccc(OC(F)F)c(OCCS(C)(=O)=O)c1 [Example 95, (E)-1-(3-methylsulfoneethoxy-4-difluoromethoxystyryl)-2,6-dimethylpyridin-4(1H)-one] | 260
13 | COc1ccc(/C(=C/n2c(C)cc(=O)cc2C)C(N)=O)cc1OCC1CC1 [Example 107, (Z)-2-(3-cyclopropylmethoxy-4-methoxyphenyl)-3-(2,6-dimethyl-4-carbonylpyridin-1(4H)-yl)-acrylamide] | 450
14 | COc1ccc(/C=C/n2c(C)cc(=O)cc2C)cc1OCSC [Example 74, (E)-1-(3-methylthiomethoxy-4-methoxystyryl)-2,6-dimethylpyridin-4(1H)-one] | 38
15 | COc1ccc(/C=C/n2c(C)cc(=O)cc2C)cc1O[C@@H]1CCS(=O)(=O)C1 [Example 87, (R,E)-1-(3-((1,1-dioxotetrahydrothiophen-3-yl)oxy)-4-methoxy-styryl)-2,6-dimethylpyridin-4(1H)-one] | 78
16 | COc1ccc(C(=O)Cn2ccc(=O)cc2C)cc1OCC1CC1 [Example 46, 1-(2-(3-cyclopropylmethoxy-4-methoxyphenyl)-2-oxoethyl)-2-methylpyridin-4(1H)-one] | 25
17 | COc1ccc(/C=C/n2c(C)cc(=O)cc2C)cc1OCC[S+](C)[O-] (stereo not drawn) [Example 78, (E)-1-(3-methylsulfoxideethoxy-4-methoxystyryl)-2,6-dimethylpyridin-4(1H)-one] | 36
18 | COc1ccc(/C=C/n2c(C)cc(=O)cc2C)cc1OCS(C)(=O)=O [Example 76, (E)-1-(3-methylsulfonemethoxy-4-methoxystyryl)-2,6-dimethylpyridin-4(1H)-one] | 105
19 | COc1ccc(C(=O)Cn2c(C)cc(=O)cc2C)cc1OCC=C(C)C [Example 27, 1-(2-(3-((3-methylbut-2-en-1-yl)oxy)-4-methoxyphenyl)-2-oxoethyl)-2,6-dimethylpyridin-4(1H)-one] | 65
20 | CO/N=C(\Cn1c(C)cc(=O)cc1C)c1ccc(OC)c(OCC2CC2)c1 [Example 39, (Z)-1-(2-(3-cyclopropylmethoxy-4-methoxyphenyl)-2-(methoxyimido)ethyl)-2,6-dimethylpyridin-4(1H)-one] | 1070

Row | Compound | IC50 [nM]
21 | COc1ccc(/C(C#N)=C/n2c(C)cc(=O)cc2C)cc1OC [Example 115] | 9.9
22 | COc1ccc(/C=C/n2c(C)cc(=O)cc2C)cc1OC1CC1 [Example 58, (E)-1-(3-cyclopropyloxy-4-methoxystyryl)-2,6-dimethylpyridin-4(1H)-one] | 5.5
23 | COc1ccc(/C=C/n2c(C)cc(=O)cc2C)cc1OC[S+](C)[O-] (stereo not drawn) [Example 75, (E)-1-(3-methylsulfoxidemethoxy-4-methoxystyryl)-2,6-dimethylpyridin-4(1H)-one] | 290
24 | COc1ccc(/C=C/n2c(C)cc(=O)cc2C)cc1OC1CSC1 [Example 69, (E)-1-((3-(thiacyclobutan-3-yl-oxy)-4-methoxy)-styryl)-2,6-dimethylpyridin-4(1H)-one] | 5200
25 | CSCCOc1cc(/C=C/n2c(C)cc(=O)cc2C)ccc1OC(F)F [Example 93, (E)-1-(3-methylthioethoxy-4-difluoromethoxystyryl)-2,6-dimethylpyridin-4(1H)-one] | 12.9
26 | Cc1cc(=O)cc(C)n1/C=C/c1ccc(OC(F)F)c(O[C@H]2CCS(=O)(=O)C2)c1 [Example 99, (S,E)-1-(3-(1,1-dioxotetrahydrothiophen-3-yl)oxy-4-difluoromethoxystyryl)-2,6-dimethylpyridin-4(1H)-one] | 59
27 | COc1ccc(C(=O)Cn2c(C)cc(=O)cc2C)cc1OCCS(C)(=O)=O [Example 37, 1-(2-(3-methylsulfoneethoxy-4-methoxyphenyl)-2-oxoethyl)-2,6-dimethylpyridin-4(1H)-one] | 510
28 | Cc1cc(=O)cc(C)n1/C=C/c1ccc(OC(F)F)c(O[C@@H]2CC[S+]([O-])C2)c1 (single isomer, unassigned) [Example 101-1] | 99
29 | CCCOc1cc(/C=C/n2c(C)cc(=O)cc2C)ccc1OC [Example 53, (E)-1-(3-propoxy-4-methoxystyryl)-2,6-dimethylpyridin-4(1H)-one] | 15
30 | Cc1cc(=O)cc(C)n1/C=C/c1ccc(OC(F)F)c(O[C@H]2CC[S+]([O-])C2)c1 (single isomer, unassigned) [Example 98-2] | 12.5
31 | COc1ccc(C(=O)Cn2c(C)cc(=O)cc2C)cc1OC1CCCCC1 [Example 24, 1-(2-(3-cyclohexyloxy-4-methoxyphenyl)-2-oxoethyl)-2,6-dimethylpyridin-4(1H)-one] | 23
32 | COc1ccc(CCn2c(C)cc(=O)cc2C)cc1OCC1CC1 [Example 60, (E)-1-(3-cyclopropylmethoxy-4-methoxyphenethyl)-2,6-dimethylpyridin-4(1H)-one] | 1200
33 | COc1ccc(/C=C(\C(=O)N(C)C)n2c(C)cc(=O)cc2C)cc1OCC1CC1 [Example 118] | 320
34 | COc1ccc(C(=O)Cn2c(C)cc(=O)cc2C)cc1O [Example 10, 1-(2-(3-hydroxy-4-methoxyphenyl)-2-oxoethyl)-2,6-dimethylpyridin-4(1H)-one] | 3300
35 | Cc1cc(=O)cc(C)n1/C=C/c1ccc(OC(F)F)c(OC[S+](C)[O-])c1 (stereo not drawn) [Example 91, (E)-1-(3-methylsulfoxidemethoxy-4-difluoromethoxystyryl)-2,6-dimethylpyridin-4(1H)-one] | 75
36 | CNC(=O)COc1cc(/C=C/n2c(C)cc(=O)cc2C)ccc1OC [Example 71, (E)-2-(5-(2-(2,6-dimethyl-4-carbonylpyridin-1(4H)-yl)ethenyl)-2methoxyphenoxy)-N-methylacetamide] | 1420
37 | COc1ccc(/C=C/n2c(C)cc(=O)cc2C)cc1O[C@H]1CCSC1 [Example 82, (S,E)-1-(3-(tetrahydrothiophen-3-yl)oxy-4-methoxystyryl)-2,6-dimethylpyridin-4(1H)-one] | 7.5
38 | COc1ccc(C(=O)Cn2c(C)cc(=O)cc2C)cc1OC1CCCO1 (stereo not drawn) [Example 31, 1-(2-(3-(tetrahydrofuran-2-yl)oxy-4-methoxyphenyl)-2-oxoethyl)-2,6-dimethylpyridin-4(1H)-one] | 26
39 | COc1ccc(C(C#N)=Cn2c(C)cc(=O)cc2C)cc1OCC1CC1 (stereo in doubt) [Example 106, (E)-1-(2-(3-cyclopropylmethoxy-4-methoxyphenyl)-2-cyanoethenyl)-2,6-dimethylpyridin-4(1H)-one] | 2.7
